The results in this text go back to publication PMC5535168 (Toxins, 2017).

In one experiment the test system is mAb AVR1675. The experiment is classed as binding, mouse.
The next experiment has as its system AVR1675 mAb. The experiment is classed as binding, mouse.
Experiment [1] concerns the target AVR1675 (LFG2 3F3:3D10 IgG1 kappa) (mouse). The experiment can be described thus: ELISA. In general terms: An ELISA detects its analyte on a solid surface through an enzyme-linked reagent.

Several values for one entry are separate records, joined by “and”; a condition that tells them apart may be missing. Equal entries are not always repeated. Where two headings read alike, the source gives them in different places. Where a SMILES comes first, the peptide text is derived from it. Where no end group is shown, it is not given here. The star is where a group is joined. Biotin = O=C1N[C@H]2[C@H](CS[C@H]2CCCCC(=O)*)N1 Some results are limits rather than exact numbers.

Chain of AVR1675 (LFG2 3F3:3D10 IgG1 kappa) (mouse) (heavy, as listed by the source): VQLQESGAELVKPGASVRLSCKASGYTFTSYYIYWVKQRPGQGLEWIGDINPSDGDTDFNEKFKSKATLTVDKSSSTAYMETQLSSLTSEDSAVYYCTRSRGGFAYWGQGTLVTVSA

In general, Kd refers to the equilibrium constant for the complex coming apart. For the molecule `CC[C@H](C)[C@H](NC(=O)[C@H](CCC(=O)O)NC(=O)[C@H](CC(=O)O)NC(=O)[C@H](CCC(N)=O)NC(=O)[C@H](Cc1c[nH]cn1)NC(=O)[C@@H](N)[C@@H](C)O)C(=O)N[C@@H](Cc1ccc(O)cc1)C(=O)N[C@@H](CCC(=O)O)C(=O)N[C@@H](CCC(N)=O)C(=O)N[C@@H](CCCCNC(=O)CCCC[C@@H]1SC[C@@H]2NC(=O)N[C@@H]21)C(=O)O` [Native LF core sequence] (H-THQDEIYEQK(Biotin)-OH), in the experiment with mAb AVR1675, the “% R of Consensus” value stood at 14% and the “Response (nm)” value is 0.7024 nm. In addition, the Kd on mAb AVR1675 (read-out: KD (M) *) is greater than 1e-07 M.
Turning to TVRD EP L [φE12], the “Phage ELISA Reactivity (class)” value with AVR1675 mAb was “High (OD 1.70) (key: High = OD > 1.0; Intermediate = OD 0.5–1.0; Low = OD < 0.5)”.
For `CC[C@H](C)[C@H](NC(=O)[C@H](CC(N)=O)NC(=O)[C@@H]1CCCN1)C(=O)N[C@@H](C)C(=O)N[C@@H](CCC(=O)O)C(=O)N[C@@H](CCC(N)=O)C(=O)N[C@@H](Cc1ccc(O)cc1)C(=O)N[C@H](C(=O)N[C@@H](Cc1c[nH]cn1)C(=O)N[C@@H](CCC(N)=O)C(=O)N[C@@H](CC(=O)O)C(=O)N[C@@H](CCC(=O)O)C(=O)N[C@H](C(=O)N[C@@H](Cc1ccc(O)cc1)C(=O)N[C@@H](CCC(=O)O)C(=O)N[C@@H](CCC(N)=O)C(=O)N[C@H](C(=O)N[C@@H](Cc1c[nH]cn1)C(=O)N[C@@H](CO)C(=O)N[C@@H](CCCCN)C(=O)NCC(=O)N[C@@H](CC(C)C)C(=O)N[C@@H](Cc1ccc(O)cc1)C(=O)N[C@H](C(=O)N1CCC[C@H]1C(=O)N[C@@H](CCC(=O)O)C(=O)N[C@@H](CO)C(=O)N[C@@H](CCCNC(=N)N)C(=O)NCC(=O)NCC(=O)NCC(=O)N[C@@H](CO)C(=O)N[C@@H](CCCCNC(=O)CCCC[C@@H]1SC[C@@H]2NC(=O)N[C@@H]21)C(=O)O)C(C)C)C(C)C)[C@@H](C)CC)[C@@H](C)O` [Native LF extended sequence], in the experiment on mAb AVR1675, the “% R of Consensus” value worked out at 14% and the “Response (nm)” value amounted to 0.7024 nm. The Kd at mAb AVR1675 (read-out: KD (M) *) was greater than 1e-07 M.
On to TVRD D Q I [φD7], for which the “Phage ELISA Reactivity (class)” value in the experiment on AVR1675 mAb is “High (OD 1.78) (key: High = OD > 1.0; Intermediate = OD 0.5–1.0; Low = OD < 0.5)”.
As to `CC[C@H](C)[C@H](NC(=O)[C@H](CCC(=O)O)NC(=O)[C@H](CC(=O)O)NC(=O)[C@H](CCCCN)NC(=O)[C@H](Cc1ccccc1)NC(=O)[C@@H](N)[C@@H](C)O)C(=O)NCC(=O)NCC(=O)NCC(=O)N[C@@H](CO)C(=O)N[C@@H](CCCCNC(=O)CCCC[C@@H]1SC[C@@H]2NC(=O)N[C@@H]21)C(=O)O` [φC8-derived Reference Sequence] (H-TFKDEIGGGSK(Biotin)-OH; N-terminus and C-terminus assumed), in the experiment on mAb AVR1675, the “% R of Consensus” value came out at 100%; the “Binding relative to the LF-sequence derived oligopeptides” value was “seven-fold higher binding”; the “R (binding response, running text)” value is listed as 4.84 nm; the “Response (nm)” value is recorded as 4.8387 nm. Further, at mAb AVR1675 (read-out: KD (M) *), the Kd was 1.39e-08 M. Besides, the Kd at mAb AVR1675 (read-out: KD (equilibrium affinity constant)) was found to be 9.97e-09 M.

B1: phage-displayed peptide T-F-K-D-D-I-H (phage clone φC9) (peptide)
peptide: TFKDDIHGGGS
modifications: not fully specified
B1 displayed an OD (phage ELISA reactivity) in experiment [1] of 1.33 OD.

B2: phage-displayed peptide T-F-R-D-E-P-M (phage clone φB9) (peptide)
peptide: TFRDEPMGGGS
modifications: not fully specified
In experiment [1], B2 registered an OD (phage ELISA reactivity) of 1.71 OD.

B3: phage-displayed peptide T-F-K-D-D-G-Y (phage clone φD4) (peptide)
peptide: TFKDDGYGGGS
modifications: not fully specified
The molecule B3 had an OD (phage ELISA reactivity) in experiment [1] of 0.08 OD.

B4: phage-displayed peptide T-F-K-D-D-L-F (phage clone φC7) (peptide)
peptide: TFKDDLFGGGS
modifications: not fully specified
Regarding B4, the OD (phage ELISA reactivity) in experiment [1] came to 1.56 OD.

B5: phage-displayed peptide T-V-L-D-D-V-A (phage clone φC2) (peptide)
peptide: TVLDDVAGGGS
modifications: not fully specified
Molecule B5 came in with an OD (phage ELISA reactivity) in experiment [1] of 0.36 OD.

B6: phage-displayed peptide T-V-R-D-E-P-L (phage clone φE12) (peptide)
peptide: TVRDEPLGGGS
modifications: not fully specified
Regarding B6, the OD (phage ELISA reactivity) in experiment [1] worked out at 1.7 OD.

B7: phage-displayed peptide T-W-R-D-D-I-P (phage clone φD8) (peptide)
peptide: TWRDDIPGGGS
modifications: not fully specified
For the molecule B7, in experiment [1], the OD (phage ELISA reactivity) worked out at 0.79 OD.

B8: phage-displayed peptide T-Y-L-D-D-L-Y (phage clones φB6 and φD11) (peptide)
peptide: TYLDDLYGGGS
modifications: not fully specified
For the molecule B8, the OD (phage ELISA reactivity) in experiment [1] was 1.77 OD and 1.7 OD.

B9: phage-displayed peptide T-Y-K-D-D-I-R (phage clones φB5 and φD2) (peptide)
peptide: TYKDDIRGGGS
modifications: not fully specified
Consider B9, for which the OD (phage ELISA reactivity) in experiment [1] was 1.65 OD and 1.78 OD.

B10: phage-displayed peptide T-Y-R-D-D-P-P (phage clone φE5) (peptide)
peptide: TYRDDPPGGGS
modifications: not fully specified
In the case of B10, the OD (phage ELISA reactivity) in experiment [1] came out at 1.55 OD.

B11: phage-displayed peptide T-V-R-D-D-Q-I (phage clone φD7) (peptide)
peptide: TVRDDQIGGGS
modifications: not fully specified
As to B11, the OD (phage ELISA reactivity) in experiment [1] stood at 1.78 OD.

B12: phage-displayed peptide T-F-L-D-D-A-P (phage clone φE2) (peptide)
peptide: TFLDDAPGGGS
modifications: not fully specified
Regarding B12, in experiment [1], the OD (phage ELISA reactivity) was 1.22 OD.
